Data on 2 molecules can be found in ChEMBL document CHEMBL5500399, “Design, Synthesis, and Biological Evaluation of 1,2,4-Oxadiazole Derivatives Containing an Aryl Carboxylic Acid Moiety as Potent Sarbecovirus Papain-like Protease Inhibitors” (J Med Chem, 2024).

In test [1] the test system is SARS-CoV-2. In words: microbe, parasite or virus in culture. The settings on record: Severe acute respiratory syndrome coronavirus 2, 2019-nCoV, Vero C1008.
The subject of test [2] is SARS-CoV-2. In words: microbe, parasite or virus in culture. The following applies: Severe acute respiratory syndrome coronavirus 2, Omicron BA.1, Vero C1008.

In the case of `Cc1ccc(-c2noc(C(C)c3ccc(-c4ccccc4)c(F)c3)n2)cc1NCc1ccc(C(=O)O)s1` (racemic), the EC50 (as a rule, the midpoint of the concentration-response curve) in test [1] stood at 4.3 µM; in test [2] it was 79.8 µM.
For `CC(c1nc(-c2ccc(-c3ccc(C(=O)O)s3)cc2)no1)c1cccc2ccccc12` (centres undefined) the same measures were 5.4 µM and 25.2 µM.
